Source: patent US5258398A, “Antithrombotic diaminoalkanoic acid derivatives” (Rhone-Poulenc Rorer Pharmaceuticals Inc., priority 1991, dated 1993)

Legend:
[1] = system: fixed activated platelets; experiment: Platelet Aggregation Assay (inhibition of fibrinogen-mediated aggregation of fixed-activated platelets); assay type: cell-based; conditions: human fibrinogen 250 μg/ml, fixed thrombin-activated human platelets
Description: (§1) The effectiveness of compounds of the present invention as inhibitors of thrombus formation and platelet aggregation may be determined by the following pharmacologic tests which evaluate the inhibition of fibrinogen-mediated platelet aggregation and fibrinogen binding to thrombin-stimulated platelets by said compounds.
(§2) The Platelet Aggregation Assay is based on that described in Blood 66 (4), 946-952 (1985). The Fibrinogen-Binding Assay is essentially that of Ruggeri, Z. M., et al., Proc. Natl. Acad. Sci. USA 83, 5708-5712 (1986) and Plow, E. F., et al., Proc. Natl. Acad. Sci., USA 82, 8057-8061 (1985).
Preparation of Fixed-Activated Platelets
Platelets are isolated from human platelet concentrates using the gel-filtration technique as described by Marguerie, G. A., et al., J. Biol. Chem. 254, 5357-5363 (1979) and Ruggeri, Z. M., et al., J. Clin. Invest. 72, 1-12 (1983). The platelets are suspended at a concentration of 2×10^8 cells/ml in a modified calcium-free Tyrode's buffer containing 127 mM sodium chloride, 2 mM magnesium chloride, 0.42 mM Na2 HPO4, 11.9 mM NaHCO3, 2.9 mM KCl, 5.5 mM glucose, 10 mM HEPES, at a pH of 7.35 and 0.35% human serum albumin (HSA). These washed platelets are activated by addition of human α-thrombin at a final concentration of 2 units/ml, followed by thrombin inhibitor I-2581 at a final concentration of 40 μM. To the activated platelets is added paraformaldehyde to a final concentration of 0.50% and this incubated at room temperature for 30 minutes. The fixed activated platelets are then collected by centrifugation at 650×g for 15 minutes. The platelet pellets are washed four times with the above Tyrode's-0.35% HSA buffer and resuspended to 2×10^8 cells/ml in the same buffer.
Platelet Aggregation Assay
The fixed activated platelets are incubated with a selected dose of the compound to be tested for platelet aggregation inhibition for one minute and aggregation initiated by addition of human fibrinogen to a final concentration of 250 μg/ml. A platelet aggregation profiler Model PAP-4 is used to record the platelet aggregation. The extent of inhibition of aggregation is expressed as the percentage of the rate of aggregation observed in the absence of inhibitor. IC50, i.e., the amount of inhibitor required to reduce the aggregation rate by 50%, is then calculated for each compound (see, for example, Plow, E. F., et al., Proc. Natl. Acad. Sci., USA 82, 8057-8061 (1985)).

[2] = system: thrombin-stimulated platelets; experiment: Fibrinogen-Binding Assay (inhibition of 125I-fibrinogen binding to platelets); conditions: 125I-labeled fibrinogen 0.176 μmol/liter (60 μg/ml); 22°-25° C., 30 minutes; read-out: Inhibition of 125I-Fibrinogen Binding to Platelet (IC50)
Description: as §1, §2
Platelets are washed free of plasma constituents by the albumin density-gradient technique of Walsh, P. N., et al., Br. J. Haematol. 281-296 (1977), as modified by Trapani-Lombardo, V., et al., J. Clin Invest. 76, 1950-1958 (1985). […] The platelet pellet is then separated from the rest of the mixture to determine platelet-bound radioactivity. Nonspecific binding is measured in mixtures containing an excess of unlabeled ligand. When binding curves are analyzed by Scatchard analysis, nonspecific binding is derived as a fitted parameter from the binding isotherm by means of a computerized program (Munson, P. J., Methods Enzymol. 92, 542-576 (1983)). […]

Row | IC50 [1] [nM] | IC50 [2] [nM] | Structure (SMILES)
1 | 120 | 70 | N=C(N)NCCCCCCCC(=O)NC(CC(=O)O)NC(=O)CCCCCCCNC(=N)N (stereo not shown) [Example 1, N,N'-bis-(8-guanidino)octanoyl-3,3-diaminopropionic acid]
2 | 1300 |  | N=C(N)NCCCCCCCCC(=O)N[C@H](CC(=O)O)NC(=O)CCCCCCCNC(=N)N [Example 2, (3S)-N-(8-guanidino)octanoyl-N'-(9-guanidino)nonanoyl-3,3-diaminopropionic acid]
3 | 2800 |  | N=C(N)NCCCCCCC(=O)NC(CC(=O)O)NC(=O)CCCCCCNC(=N)N (stereo not shown) [Example 4, N,N'-bis-(7-guanidino)heptanoyl-3,3-diaminopropionic acid]
4 | 140 |  | N=C(N)NCCCCCCCCC(=O)NC(CC(=O)O)NC(=O)CCCCCCCCNC(=N)N (stereo not shown) [Example 5, N,N'-bis-(9-guanidino)nonanoyl-3,3-diaminopropionic acid]
5 | 2800 |  | N=C(N)NCCCCCCCCC(=O)N[C@H](CC(=O)O)NC(=O)CCCCCCNC(=N)N [Example 6, (3S)-N-(7-guanidino)heptanoyl-N'-(9-guanidino)nonanoyl-3,3-diaminopropionicacid]
6 | 740 |  | N=C(N)NCCCCCCCC(=O)N[C@H](CC(=O)O)NC(=O)CCCCCCNC(=N)N [Example 7, (3S)-N-(7-guanidino)heptanoyl-N'-(8-guanidino)octanoyl-3,3-diaminopropionicacid]
7 | 300 |  | N=C(N)NCCCCCCCCC(=O)N[C@@H](CC(=O)O)NC(=O)CCCCCCCNC(=N)N [Example 8, (3R)-N-(8-guanidino)octanoyl-N'-(9-guanidino)nonanoyl-3,3-diaminopropionic acid]
8 | 9800 | 1200 | N=C(N)NCCCCCCCC(=O)N[C@H](CC(=O)O)NC(=O)[C@@H](N)CCCNC(=N)N [Example 9, (3S)-N-L-arginyl-N'-(8-guanidino)octanoyl-3,3-diaminopropionic acid]
9 | 120 |  | N=C(N)NCCCCCCCCC(=O)N[C@@H](CC(=O)O)NC(=O)CCCCCCNC(=N)N [Example 10, (3R)-N-(7-guanidino)heptanoyl-N'-(9-guanidino)nonanoyl-3,3-diaminopropionicacid]
10 | 320 |  | N=C(N)NCCCCCCCC(=O)N[C@@H](CC(=O)O)NC(=O)CCCCCCNC(=N)N [Example 11, (3R)-N-(7-guanidino)heptanoyl-N'-(8-guanidino)octanoyl-3,3-diaminopropionicacid]
11 | 2000 |  | CC(C)CC(=O)N[C@H](CC(=O)O)NC(=O)CCCCCCCNC(=N)N [Example 12, (3R)-N-(8-guanidino)octanoyl-N'-(3-methyl)butanoyl-3,3-diaminopropionic acid]
12 | 25000 |  | CC[C@@H](C)[C@@H](NC(=O)CCCCNC(=N)N)C(=O)N[C@H](CC(=O)O)NC(=O)CCCCCCCCNC(=N)N [Example 15, (3R)-N-[N-[(5-guanidino)pentanoyl]-D-isoleucyl]-N'-(9-guanidino)nonanoyl-3,3-diaminopropionic acid]
13 | 17500 |  | CC[C@H](C)[C@H](NC(=O)CCCCNC(=N)N)C(=O)N[C@H](CC(=O)O)NC(=O)CCCCCCCCNC(=N)N [Example 17]
14 | > 100000 |  | N=C(N)NCCCCCCCC(=O)NC(CCC(=O)O)NC(=O)CCCCCCCNC(=N)N (stereo not shown) [Example 18, N,N'-bis-(8-guanidino)octanoyl-4,4-diaminobutanoic acid]
